In patent US20250144067A1, “PERSONALIZED STARVATION THERAPY FOR CANCER” (Faeth Therapeutics, Inc., priority 2021, published 2025):
Where a name gives a salt, the structure may show the parent alone.

Assays:
[1] = tested on: NCI-H292 lung cancer cells; assay: FDA drug screening, complete media vs cholesterol-free media without statin (TABLE 1); assay type: cell-based, human
[2] = tested on: NCI-H292 lung cancer cells; assay: FDA drug screening, complete media vs cholesterol-free media with simvastatin (TABLE 2); assay type: cell-based, human; settings: for Cholesterol-free media + simvastatin (0.04 μM) / Complete Media: NCI-H292 cells
[3] = Complete minus Cholesterol-free, greater than 0 enhanced anti-cancer activity, about 0 neutral, below 0 antagonists
[4] = NCI-H292 cells in cholesterol-free media without statin
[5] = NCI-H292 cells in complete media
[6] = FDA drug library screen, cholesterol-free media with simvastatin 0.04 μM
[7] = FDA drug library screen, complete media
[8] = complete media minus cholesterol-free media + simvastatin, >0 enhanced anti-cancer activity, about 0 neutral, <0 antagonist
[9] = Complete minus Cholesterol-free, […]
[10] = NCI-H292 cells, FDA drug library screen, cholesterol-free media without statin
[11] = NCI-H292 cells, FDA drug library screen, complete media
[12] = cholesterol-free media with simvastatin 0.04 μM, FDA drug library screen (TABLE 2)
[13] = complete media, FDA drug library screen (TABLE 2)
[14] = Complete minus Cholesterol-free, greater than 0 enhanced anti-cancer activity, about 0 neutral, below 0 antagonist
[15] = complete media minus cholesterol-free media + simvastatin (0.04 μM), >0 enhanced anti-cancer activity, about 0 neutral, <0 antagonist
[16] = NCI-H292 cells, cholesterol-free media without statin, FDA drug library screen
[17] = NCI-H292 cells, complete media, FDA drug library screen
[18] = FDA library drug in cholesterol-free media with simvastatin 0.04 μM
[19] = FDA library drug in complete media
[20] = complete media vs cholesterol-free media + simvastatin (0.04 μM), >0 enhanced anti-cancer activity, about 0 neutral, <0 antagonist
[21] = NCI-H292 cells, cholesterol-free media without statin
[22] = complete media vs cholesterol-free media + simvastatin (0.04 μM), […]
[23] = Complete minus Cholesterol-free, >0 enhanced anti-cancer activity, about 0 neutral, <0 antagonist
[24] = cholesterol-free media with simvastatin 0.04 μM, cell growth value in FDA drug screen
[25] = complete media, cell growth value in FDA drug screen
[26] = complete vs cholesterol-free media, greater than 0 enhanced anti-cancer activity, about 0 neutral, below 0 antagonists

## O=C(OC[C@H]1O[C@@H](OC(=O)c2cc(O)c(O)c(OC(=O)c3cc(O)c(O)c(O)c3)c2)[C@H](OC(=O)c2cc(O)c(O)c(OC(=O)c3cc(O)c(O)c(O)c3)c2)[C@@H](OC(=O)c2cc(O)c(O)c(OC(=O)c3cc(O)c(O)c(O)c3)c2)[C@@H]1OC(=O)c1cc(O)c(O)c(OC(=O)c2cc(O)c(O)c(O)c2)c1)c1cc(O)c(O)c(OC(=O)c2cc(O)c(O)c(O)c2)c1 [Tannic acid]
[1]; [3]
  Difference: −0.60
[1]; [4]
  Cholesterol-free: 1.391
[1]; [5]
  Complete: 0.7941
[2]; [6]
  Cholesterol-free media + simvastatin (0.04 μM): 1.824
[2]; [7]
  Complete Media: 2.065
[2]; [8]
  Difference: 0.24

## Cc1coc2c1C(=O)C(=O)c1c-2ccc2c(C)cccc12 [Tanshinone I]
[1]; [9]
  Difference: −0.07
[1]; [10]
  Cholesterol-free: 0.8572
[1]; [11]
  Complete: 0.783
[2]; [12]
  Cholesterol-free media + simvastatin (0.04 μM): 0.9012
[2]; [13]
  Complete Media: 0.8645
[2]; complete media minus cholesterol-free media + simvastatin (0.04 μM), […]
  Difference: −0.04

## CCC(=O)NC[C@@H]1C[C@H]1c1cccc2c1CCO2 [Tasimelteon]
[1]; [14]
  Difference: −0.12
[1]; [10]
  Cholesterol-free: 0.9406
[1]; [11]
  Complete: 0.8228
[2]; [12]
  Cholesterol-free media + simvastatin (0.04 μM): 0.9943
[2]; [13]
  Complete Media: 0.9618
[2]; [15]
  Difference: −0.03

## NCCS(=O)(=O)O [Taurine]
[1]; [16]
  Cholesterol-free: 1.192
[1]; [17]
  Complete: 1.309
[1]; complete vs cholesterol-free media, >0 enhanced anti-cancer activity, about 0 neutral, <0 antagonist
  Difference: 0.12
[2]; [18]
  Cholesterol-free media + simvastatin (0.04 μM): 1.971
[2]; [19]
  Complete Media: 1.363
[2]; [20]
  Difference: −0.61

## C[C@H](CCC(=O)NCCS(=O)(=O)[O-])[C@H]1CC[C@H]2[C@@H]3[C@@H](O)C[C@@H]4C[C@H](O)CC[C@]4(C)[C@H]3CC[C@]12C.[Na+] [Taurochenodeoxycholic acid (sodium salt)]
[1]; [9]
  Difference: −0.22
[1]; [21]
  Cholesterol-free: 0.9501
[1]; NCI-H292 cells, complete media
  Complete: 0.7299
[2]; [18]
  Cholesterol-free media + simvastatin (0.04 μM): 1.88
[2]; [19]
  Complete Media: 1.535
[2]; [22]
  Difference: −0.35

## C[C@H](CCC(=O)NCCS(=O)(=O)O)[C@H]1CC[C@H]2[C@@H]3[C@H](O)C[C@@H]4C[C@H](O)CC[C@]4(C)[C@H]3CC[C@]12C [Taurochenodeoxycholic acid]
[1]; [9]
  Difference: −0.12
[1]; [10]
  Cholesterol-free: 0.9676
[1]; [11]
  Complete: 0.8469
[2]; drug in cholesterol-free media with simvastatin 0.04 μM
  Cholesterol-free media + simvastatin (0.04 μM): 1.179
[2]; drug in complete media
  Complete Media: 1.003
[2]; [22]
  Difference: −0.18

## C[C@H](CCC(=O)NCCS(=O)(=O)O)[C@H]1CC[C@H]2[C@@H]3CC[C@@H]4C[C@H](O)CC[C@]4(C)[C@H]3C[C@H](O)[C@]12C [Taurodeoxycholic acid (sodium hydrate)]
[1]; [23]
  Difference: −0.23
[1]; [21]
  Cholesterol-free: 1.216
[1]; NCI-H292 cells, complete media
  Complete: 0.9829
[2]; [20]
  Difference: −0.45

## OB1OCc2cc(F)ccc21 [Tavaborole]
[1]; [23]
  Difference: −0.04
[1]; [16]
  Cholesterol-free: 1.018
[1]; [17]
  Complete: 0.9789
[2]; [12]
  Cholesterol-free media + simvastatin (0.04 μM): 1.181
[2]; [13]
  Complete Media: 1.117
[2]; [15]
  Difference: −0.06

## CCOC(=O)c1ccc(C#Cc2ccc3c(c2)C(C)(C)CCS3)nc1 [Tazarotene]
[1]; [14]
  Difference: −0.11
[1]; [10]
  Cholesterol-free: 0.7313
[1]; [11]
  Complete: 0.6177
[2]; [12]
  Cholesterol-free media + simvastatin (0.04 μM): 0.9107
[2]; [13]
  Complete Media: 0.8646
[2]; [15]
  Difference: −0.05

## CCN(c1cc(-c2ccc(CN3CCOCC3)cc2)cc(C(=O)NCc2c(C)cc(C)[nH]c2=O)c1C)C1CCOCC1 [Tazemetostat (hydrobromide)]
[1]; [3]
  Difference: −0.47
[1]; [4]
  Cholesterol-free: 1.683
[1]; [5]
  Complete: 1.209
[2]; [6]
  Cholesterol-free media + simvastatin (0.04 μM): 0.8785
[2]; [7]
  Complete Media: 1.469
[2]; [8]
  Difference: 0.59

## CCN(c1cc(-c2ccc(CN3CCOCC3)cc2)cc(C(=O)NCc2c(C)cc(C)[nH]c2=O)c1C)C1CCOCC1 [Tazemetostat]
[1]; [3]
  Difference: −0.49
[1]; [4]
  Cholesterol-free: 1.722
[1]; [5]
  Complete: 1.228
[2]; [6]
  Cholesterol-free media + simvastatin (0.04 μM): 0.9335
[2]; [7]
  Complete Media: 1.59
[2]; [8]
  Difference: 0.66

## C[C@]1(Cn2ccnn2)[C@H](C(=O)O)N2C(=O)C[C@H]2S1(=O)=O [Tazobactam]
[1]; [14]
  Difference: −0.10
[1]; [10]
  Cholesterol-free: 1.004
[1]; [11]
  Complete: 0.9006
[2]; [6]
  Cholesterol-free media + simvastatin (0.04 μM): 1.141
[2]; [7]
  Complete Media: 1.299
[2]; [8]
  Difference: 0.16

## Cn1nnc(-c2ccc(-c3ccc(N4C[C@H](CO)OC4=O)cc3F)cn2)n1 [Tedizolid]
[1]; [14]
  Difference: −0.10
[1]; [10]
  Cholesterol-free: 0.9116
[1]; [11]
  Complete: 0.8073
[2]; [24]
  Cholesterol-free media + simvastatin (0.04 μM): 1.119
[2]; [25]
  Complete Media: 1.184
[2]; [8]
  Difference: 0.07

## O=c1[nH]c(=O)n(C2CCCO2)cc1F (stereo not shown) [Tegafur]
[1]; [23]
  Difference: −0.25
[1]; [21]
  Cholesterol-free: 0.9682
[1]; NCI-H292 cells, complete media
  Complete: 0.7137
[2]; [6]
  Cholesterol-free media + simvastatin (0.04 μM): 1.002
[2]; [7]
  Complete Media: 1.263
[2]; [8]
  Difference: 0.26

## CCC[C@H](NC(=O)[C@@H]1[C@H]2CCC[C@H]2CN1C(=O)[C@@H](NC(=O)[C@@H](NC(=O)c1cnccn1)C1CCCCC1)C(C)(C)C)C(=O)C(=O)NC1CC1 [Telaprevir]
[1]; [21]
  Cholesterol-free: 1.55
[1]; NCI-H292 cells, complete media
  Complete: 1.165
[1]; complete vs cholesterol-free media, […]
  Difference: −0.39
[2]; [6]
  Cholesterol-free media + simvastatin (0.04 μM): 1.084
[2]; [7]
  Complete Media: 0.9529
[2]; [22]
  Difference: −0.13

## Cc1cn([C@@H]2C[C@@H](O)[C@H](CO)O2)c(=O)[nH]c1=O [Telbivudine]
[1]; [23]
  Difference: −0.03
[1]; [16]
  Cholesterol-free: 0.8613
[1]; [17]
  Complete: 0.8275
[2]; [12]
  Cholesterol-free media + simvastatin (0.04 μM): 0.8748
[2]; [13]
  Complete Media: 0.8605
[2]; [15]
  Difference: −0.01

## CC[C@H]1OC(=O)[C@H](C)C(=O)[C@H](C)[C@@H](O[C@@H]2O[C@H](C)C[C@H](N(C)C)[C@H]2O)[C@](C)(OC)C[C@@H](C)C(=O)[C@H](C)[C@H]2N(CCCCn3cnc(-c4cccnc4)c3)C(=O)O[C@]12C [Telithromycin]
[1]; [3]
  Difference: −0.51
[1]; [4]
  Cholesterol-free: 1.316
[1]; [5]
  Complete: 0.8019
[2]; [12]
  Cholesterol-free media + simvastatin (0.04 μM): 0.872
[2]; [13]
  Complete Media: 0.854
[2]; [15]
  Difference: −0.02

## CCCc1nc2c(C)cc(-c3nc4ccccc4n3C)cc2n1Cc1ccc(-c2ccccc2C(=O)O)cc1 [Telmisartan]
[1]; [23]
  Difference: −0.06
[1]; [16]
  Cholesterol-free: 1.319
[1]; [17]
  Complete: 1.255
[2]; [24]
  Cholesterol-free media + simvastatin (0.04 μM): 0.8657
[2]; [25]
  Complete Media: 0.906
[2]; [8]
  Difference: 0.04

## CCOC(=O)[C@@H](N)Cc1ccc(-c2cc(O[C@H](c3ccc(Cl)cc3-n3ccc(C)n3)C(F)(F)F)nc(N)n2)cc1 [Telotristat ethyl]
[1]; [21]
  Cholesterol-free: 1.253
[1]; NCI-H292 cells, complete media
  Complete: 0.9282
[1]; [26]
  Difference: −0.32
[2]; [6]
  Cholesterol-free media + simvastatin (0.04 μM): 1.11
[2]; [7]
  Complete Media: 0.9913
[2]; [20]
  Difference: −0.12

## CCOC(=O)[C@@H](N)Cc1ccc(-c2cc(O[C@H](c3ccc(Cl)cc3-n3ccc(C)n3)C(F)(F)F)nc(N)n2)cc1 [Telotristat etiprate]
[1]; [3]
  Difference: −0.51
[1]; [4]
  Cholesterol-free: 1.323
[1]; [5]
  Complete: 0.8145
[2]; [6]
  Cholesterol-free media + simvastatin (0.04 μM): 1.173
[2]; [7]
  Complete Media: 1.074
[2]; [20]
  Difference: −0.10

## CCOC(=O)[C@H](CCc1ccccc1)N[C@H]1CS[C@H](c2cccs2)CN(CC(=O)O)C1=O [Temocapril (hydrochloride)]
[1]; [23]
  Difference: 0.00
[1]; [16]
  Cholesterol-free: 0.6068
[1]; [17]
  Complete: 0.6079
[2]; [12]
  Cholesterol-free media + simvastatin (0.04 μM): 1.423
[2]; [13]
  Complete Media: 1.436
[2]; [15]
  Difference: 0.01

## Oc1cccc(-c2c3nc(c(-c4cccc(O)c4)c4ccc([nH]4)c(-c4cccc(O)c4)c4nc(c(-c5cccc(O)c5)c5ccc2[nH]5)CC4)C=C3)c1 [Temoporfin]
[1]; [14]
  Difference: −0.10
[1]; [10]
  Cholesterol-free: 0.848
[1]; [11]
  Complete: 0.7514
[2]; [6]
  Cholesterol-free media + simvastatin (0.04 μM): 0.6286
[2]; [7]
  Complete Media: 0.9208
[2]; [8]
  Difference: 0.29

## Cn1nnc2c(C(N)=O)ncn2c1=O [Temozolomide]
[1]; [21]
  Cholesterol-free: 1.265
[1]; NCI-H292 cells, complete media
  Complete: 0.9503
[1]; [26]
  Difference: −0.31
[2]; [6]
  Cholesterol-free media + simvastatin (0.04 μM): 0.984
[2]; [7]
  Complete Media: 0.8242
[2]; [20]
  Difference: −0.16

## CO[C@H]1C[C@@H]2CC[C@@H](C)[C@@](O)(O2)C(=O)C(=O)N2CCCC[C@H]2C(=O)O[C@H]([C@H](C)C[C@@H]2CC[C@@H](OC(=O)C(C)(CO)CO)[C@H](OC)C2)CC(=O)[C@H](C)/C=C(\C)[C@@H](O)[C@@H](OC)C(=O)[C@H](C)C[C@H](C)/C=C/C=C/C=C/1C [Temsirolimus]
[1]; [23]
  Difference: −0.06
[1]; [16]
  Cholesterol-free: 0.4176
[1]; [17]
  Complete: 0.3544
[2]; [24]
  Cholesterol-free media + simvastatin (0.04 μM): 0.4472
[2]; [25]
  Complete Media: 0.5571
[2]; [8]
  Difference: 0.11
